Measured values from ChEMBL document CHEMBL1156180, “Synthesis and bioluminescence-inducing properties of autoinducer (S)-4,5-dihydroxypentane-2,3-dione and its enantiomer” (Bioorg Med Chem Lett, 2010).
The source made the active and inactive calls. The calls are words filed in the database; no cut-off is given here.

Biological target: Autoinducer 2-binding periplasmic protein LuxP (Vibrio harveyi) (UniProt P54300)
Test: Induction of Vibrio harveyi BB170 LuxP sensor protein-mediated quorum sensing activity at 0.5 to 5 ug/ml by reporter bioluminescence assay

Autoinducer 2-binding periplasmic protein LuxP (Vibrio harveyi), sequence (P54300 whole entry): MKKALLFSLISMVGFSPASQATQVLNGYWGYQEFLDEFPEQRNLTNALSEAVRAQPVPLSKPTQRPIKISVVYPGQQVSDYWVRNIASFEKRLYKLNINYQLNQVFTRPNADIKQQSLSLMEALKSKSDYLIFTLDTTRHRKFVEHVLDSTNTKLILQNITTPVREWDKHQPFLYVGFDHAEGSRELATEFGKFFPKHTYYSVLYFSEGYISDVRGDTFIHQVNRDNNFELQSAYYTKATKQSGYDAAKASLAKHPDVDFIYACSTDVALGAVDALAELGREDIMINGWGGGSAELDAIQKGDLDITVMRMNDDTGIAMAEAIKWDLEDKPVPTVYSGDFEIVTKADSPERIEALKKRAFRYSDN

CC(=O)C(=O)[C@@H](O)CO
Activity: Active

CC(=O)C(=O)[C@H](O)CO
Activity: Active
